Results on four compounds are retold here after publication PMC11040934, “PI3Kγδ inhibition suppresses key disease features in a rat model of asthma” (Respiratory Research, 2024).

The target of one data set is T1, rat PI3Kδ (Rattus norvegicus, UniProt A0A8I5Y949).
T1 sequence (A0A8I5Y949 1-1047): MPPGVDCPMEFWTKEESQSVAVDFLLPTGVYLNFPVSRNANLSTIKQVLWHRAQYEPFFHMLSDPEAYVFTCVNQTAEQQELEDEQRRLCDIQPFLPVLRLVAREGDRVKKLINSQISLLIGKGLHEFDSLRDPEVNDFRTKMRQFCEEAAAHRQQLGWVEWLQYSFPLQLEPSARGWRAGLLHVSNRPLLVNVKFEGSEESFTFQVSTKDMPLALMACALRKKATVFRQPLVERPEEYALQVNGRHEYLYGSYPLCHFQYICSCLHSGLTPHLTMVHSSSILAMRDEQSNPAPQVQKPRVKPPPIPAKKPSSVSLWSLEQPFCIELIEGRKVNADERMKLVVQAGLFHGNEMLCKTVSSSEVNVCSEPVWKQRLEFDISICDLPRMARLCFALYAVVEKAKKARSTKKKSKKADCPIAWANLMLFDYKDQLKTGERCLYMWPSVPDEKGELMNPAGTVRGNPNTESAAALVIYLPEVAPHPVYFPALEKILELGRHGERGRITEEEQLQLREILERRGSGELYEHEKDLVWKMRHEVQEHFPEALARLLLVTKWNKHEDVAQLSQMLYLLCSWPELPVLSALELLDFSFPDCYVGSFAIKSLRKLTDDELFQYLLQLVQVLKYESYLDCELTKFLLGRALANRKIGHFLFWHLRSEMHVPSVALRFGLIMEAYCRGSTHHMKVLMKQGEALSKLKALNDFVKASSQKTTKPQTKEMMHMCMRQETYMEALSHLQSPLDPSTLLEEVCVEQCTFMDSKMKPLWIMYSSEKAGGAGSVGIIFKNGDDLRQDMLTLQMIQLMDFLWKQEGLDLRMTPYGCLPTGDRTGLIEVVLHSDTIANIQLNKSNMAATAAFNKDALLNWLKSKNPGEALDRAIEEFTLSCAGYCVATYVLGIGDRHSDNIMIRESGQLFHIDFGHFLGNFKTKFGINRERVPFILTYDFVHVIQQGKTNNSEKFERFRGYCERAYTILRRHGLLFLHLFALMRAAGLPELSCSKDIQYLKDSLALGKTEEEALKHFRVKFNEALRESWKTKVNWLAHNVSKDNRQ
The experiment in a line: PI3K δ assay: anti-IgM-stimulated CD86 expression on rat splenic B cells (FACS). Type of data set: cell-based. To be noted: reference inhibitors, at the relevant concentration. As to the method: (§1) PI3K δ assay: single cell suspension was obtained from the spleen of male Sprague Dawley rat; cells were cultured in RPMI containing heat-inactivated 10% FBS, pre-treated (1 hr., 37 °C, 5% CO2) with vehicle DMSO or PI3K inhibitors, followed by stimulation with AffiniPure F(ab’)2 Fragment Goat Anti-Rat IgM, μ chain specific, Jackson Immunoresearch (112–006-075) at 5 μg/mL (EC80 determined in house; 20–22 hrs). Then, cells were washed with FACS buffer (2% FBS, […]) and stained (15 mins, 4 °C) with Fc block (1:100, 550,273, BD bioscience), LIVE/DEAD Fixable Aqua Dead Cell Stain Kit (L34957, Invitrogen, 1:300), CD45R (B220)-PeCy7 (HIS24) (25–0460-82, eBioscience, 1:100), CD3-AF647 (IF4) (201,408, Biolegend, 1:100), CD86-FITC (24F) (200,305, Biolegend, 1:50). Cells were acquired on the Flow Cytometer (BD LSRFortessa™) and analysed using FlowJo 9.9 software (TreeStar). FACS gating strategy: lymphocytes (FSC-A vs SSC-A), doublets exclusion (FSC-W vs FSC-H), live cells (Aqua-530-), B cell identification CD3- B220 + % of positive B cells for CD86. IC50 values were determined in Graph Pad through a nonlinear fit on log transform data: log inhibitor vs response, variable slope, 4 parameters. Fraction unbound in in vitro assay is calculated using the following equation: fu^′=DF·fup/1+DF-1·fup where fu’ is the fraction unbound in assay media; fup is the experimentally determined fraction unbound in undiluted human plasma; DF is the dilution factor (fold difference between protein concentration in human plasma and assay media, using an albumin concentration of 600 μM (40 g/L) for undiluted plasma) Table 2.

The next data set has as its target rat PI3Kγ (Rattus norvegicus, UniProt D3ZFJ0). The experiment in a line: PI3K γ assay: CXCL1/CINC-1-stimulated CD11b expression on rat whole blood neutrophils (FACS). Type of data set: cell-based. To be noted: reference inhibitors, at the relevant concentration. As to the method: (§2) PI3K γ assay: whole blood from male Sprague Dawley rat was collected in heparin coated tubes and pre-treated (1 hr., 37 °C, 5% CO2) with vehicle DMSO or PI3K inhibitors followed by stimulation with Rat CXCL1/CINC-1 (515-CN-050, R&D) at 500 ng/mL (EC80 determined in house; 1 hr., RT). Next, cells were stained with Fc block (550,273, BD bioscience, 1:100; 20 mins, RT), CD45R-B220-PeCy7 (HIS24) (25–0460-82, eBioscience, 1:100), CD43-PE (W3/13) (202,812, Biolegend, 1:100), HIS48-FITC (11–0570-82, eBioscience, 1:100), CD11b-APC (562,102, BD Bioscience, 1:100). Cells were lysed and fixed with BD FACS lysing solution (349,202, BD Biosciences; 45 mins, RT) before FACS acquisition (BD LSRFortessa™). Data were analysed using FlowJo 9.9 software (TreeStar). FACS gating strategy: lymphocytes (FSC-A vs SSC-A), doublets exclusion (FSC-W vs FSC-H), neutrophil identification B220-, HIS48hi, CD43hi, SSC-Ahi, geom. MFI for CD11b on neutrophils. IC50 values were determined in Graph Pad through a nonlinear fit on log transform data: log inhibitor vs response, variable slope, 4 parameters. Fraction unbound in diluted whole blood is calculated using the following equation: fu^′=DF·fub/1+DF-1·fub where fu’ is the fraction unbound in diluted whole blood; fub is the fraction unbound in undiluted whole blood; DF is the dilution factor. Fraction unbound in 100% whole blood (fub) is calculated as fup/BP, where fup is the experimentally determined fraction unbound in undiluted plasma and BP is the experimentally determined blood to plasma partition ratio of drug Table 1.

Data set [1] can be described thus: Rat plasma protein binding, blood to plasma ratio, unbound fraction in whole blood. Type of data set: in vitro ADME. To be noted: for Rat fub: fraction unbound in 100% whole blood, fup/BP; for fraction unbound: rat. As to the method:
as §2, with “Next,” for “PI3K γ assay: whole blood from male Sprague Dawley rat was collected in heparin coated tubes and pre-treated (1 hr., 37 °C, 5% CO2) with vehicle DMSO or PI3K inhibitors followed by stimulation with Rat CXCL1/CINC-1 (515-CN-050, R&D) at 500 ng/mL (EC80 determined in house; 1 hr., RT). Next,”

Data set [2] in a line: Human plasma protein binding and unbound fraction in assay media. Type of data set: in vitro ADME. As to the method:
as §1

The next data set has as its system asthma patients. To be noted: cited from earlier work.

Sequence of rat PI3Kγ (D3ZFJ0 1-1102): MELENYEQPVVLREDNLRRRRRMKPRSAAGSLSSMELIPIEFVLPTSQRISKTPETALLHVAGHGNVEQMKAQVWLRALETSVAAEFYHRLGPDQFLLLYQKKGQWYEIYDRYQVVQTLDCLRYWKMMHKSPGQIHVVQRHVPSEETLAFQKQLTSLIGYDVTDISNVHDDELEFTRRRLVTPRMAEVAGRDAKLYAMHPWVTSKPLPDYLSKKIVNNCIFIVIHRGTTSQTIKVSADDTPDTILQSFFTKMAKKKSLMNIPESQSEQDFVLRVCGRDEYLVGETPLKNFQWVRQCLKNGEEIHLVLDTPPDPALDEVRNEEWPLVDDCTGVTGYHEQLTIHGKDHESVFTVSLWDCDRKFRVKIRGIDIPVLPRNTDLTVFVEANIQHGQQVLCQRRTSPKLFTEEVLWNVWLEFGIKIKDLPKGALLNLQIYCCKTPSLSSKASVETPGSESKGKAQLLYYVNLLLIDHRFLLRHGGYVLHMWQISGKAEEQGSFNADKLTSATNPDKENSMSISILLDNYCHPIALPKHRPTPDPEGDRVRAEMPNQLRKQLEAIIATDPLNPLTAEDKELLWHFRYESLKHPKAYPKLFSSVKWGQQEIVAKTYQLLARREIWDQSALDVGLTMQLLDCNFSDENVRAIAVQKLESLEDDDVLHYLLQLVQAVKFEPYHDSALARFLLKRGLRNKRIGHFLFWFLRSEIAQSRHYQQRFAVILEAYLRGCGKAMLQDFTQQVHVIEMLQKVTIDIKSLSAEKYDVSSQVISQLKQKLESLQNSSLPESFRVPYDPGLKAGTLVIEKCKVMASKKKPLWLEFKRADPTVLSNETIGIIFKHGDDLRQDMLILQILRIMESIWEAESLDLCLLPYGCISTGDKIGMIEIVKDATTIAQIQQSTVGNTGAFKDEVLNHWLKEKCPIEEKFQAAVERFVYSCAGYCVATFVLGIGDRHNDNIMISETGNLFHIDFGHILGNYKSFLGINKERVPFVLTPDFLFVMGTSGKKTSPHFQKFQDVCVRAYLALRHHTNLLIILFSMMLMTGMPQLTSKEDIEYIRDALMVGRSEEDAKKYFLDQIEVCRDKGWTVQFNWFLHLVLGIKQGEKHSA

`CC(=O)Nc1nc(C)c(-c2cc3c(c(S(C)(=O)=O)c2)C(=O)N([C@@H](C)C2CC2)C3)s1` [AZD3458]: on rat PI3Kδ, the “effect in PI3Kδ assay (CD86 expression)” value is on record as “had no impact on the other assay”. The “effect in PI3Kγ assay (CD11b expression)” value at rat PI3Kγ is listed as “blocked their respective assay”. Also, the Rat fub in data set [1] is 0.200.

As for `CC(C)N1CCN(Cc2cnc(-c3cc(-c4cccc5[nH]ccc45)cc4[nH]ncc34)o2)CC1` [GSK2269557], the fraction unbound amounted to 0.021 in data set [2] (human plasma, fraction unbound, read-out: Human ppb (fu, %)); 0.177 in data set [2] (human, assay media (PI3K δ assay), fraction unbound in assay media (δ assay, RPMI 10% FBS), read-out: Fu’); 0.0524 in data set [1] (diluted whole blood (PI3K γ assay), fraction unbound in diluted whole blood, DF 1.05 (γ assay), read-out: fu’); 0.044 in data set [1] (plasma, rat plasma, fraction unbound, read-out: Rat ppb (fu, %)); 0.044 in data set [1] (plasma, undiluted rat plasma, fraction, read-out: Rat plasma fu). In addition, the “effect in PI3Kδ assay (CD86 expression)” value at rat PI3Kδ was “blocked their respective assay”. Besides, the “effect in PI3Kγ assay (CD11b expression)” value on rat PI3Kγ was “had no impact on the other assay”. In data set [1] (blood to plasma partition ratio), the “Rat B/P ratio” value was 0.88. In addition, the Rat fub in data set [1] was found to be 0.050.

With `CC(C)N1CCN(Cc2cnc(-c3cc(-c4cccc5[nH]ccc45)cc4[nH]ncc34)o2)CC1` [Nemarisilib], in the data set on asthma patients (inhaled), the “asthma symptoms in clinical trials” value is on record as “no improvement in asthma symptoms” and the “cough propensity in clinical trials” value is recorded as “increase in cough propensity”.

Take `C[C@H](Nc1ncnc2nc[nH]c12)c1cc2cccc(Cl)c2c(=O)n1-c1ccccc1` [duvelisib]: in the data set on asthma patients (oral), the “effect in clinical asthma trials” value was “beneficial effects”.
